Results published in the supplement of paper PMC10307832.

Tests used:
Test in all cases: relative viability (nuclei count vs DMSO), 5 days (fraction); higher = more cells survive
[1] = system: NCI-H1793
Summary of the method: (§1)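 Medians of duplicate plates are given as relative viability. That measure is the nuclei count in treated wells divided by the count in vehicle wells. Counts were taken on 4× images of lung cancer cell lines in 1536-well plates, 5 days after pin-tool dosing the day after seeding with one drug alone or a fixed anchor-drug dose plus five library-drug doses (not always all listed) in √10 steps.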

[2] = system: CAL-12T
Summary of the method: as §1

[3] = system: EBC-1
Summary of the method: as §1

[4] = system: HARA
Summary of the method: as §1

[5] = system: NCI-H2342
Summary of the method: as §1

[6] = system: UMC-11
Summary of the method: as §1

[7] = system: NCI-H1648
Summary of the method: as §1

[8] = system: NCI-H2170
Summary of the method: as §1

[9] = system: LOU-NH91
Summary of the method: as §1

[10] = system: ABC-1
Summary of the method: as §1

[11] = system: EKVX
Summary of the method: as §1

[12] = system: NCI-H2347
Summary of the method: as §1

[13] = system: NCI-H1734
Summary of the method: as §1

[14] = system: LU99A
Summary of the method: as §1

[15] = system: HCC-78
Summary of the method: as §1

[16] = system: NCI-H522
Summary of the method: as §1

[17] = system: HCC-366
Summary of the method: as §1

[18] = system: NCI-H1437
Summary of the method: as §1

[19] = system: Calu-6
Summary of the method: as §1

[20] = system: NCI-H358
Summary of the method: as §1

[21] = system: LXF-289
Summary of the method: as §1

[22] = system: COR-L 105
Summary of the method: as §1

[23] = system: HCC-827
Summary of the method: as §1

[24] = system: NCI-H1915
Summary of the method: as §1

[25] = system: 201T
Summary of the method: as §1

Nc1cccc2c1CN(C1CCC(=O)NC1=O)C2=O (stereo unspecified) [Lenalidomide] + O=C(c1cc(Cc2n[nH]c(=O)c3ccccc23)ccc1F)N1CCN(C(=O)C2CC2)CC1 [Olaparib] (partner 8 µM)
relative viability ([1]; first compound 0.253 µM): 0.863 | relative viability ([1]; first compound 2.53 µM): 1.07 | relative viability ([1]; first compound 8 µM): 0.539 | relative viability ([2]; first compound 0.253 µM): 0.807 | relative viability ([2]; first compound 0.8 µM): 0.729 | relative viability ([2]; first compound 2.53 µM): 0.757 | relative viability ([2]; first compound 8 µM): 0.941 | relative viability ([3]; first compound 0.253 µM): 0.708 | relative viability ([3]; first compound 0.8 µM): 0.603 | relative viability ([3]; first compound 2.53 µM): 0.823 | relative viability ([3]; first compound 8 µM): 0.691 | relative viability ([4]; first compound 0.253 µM): 0.925 | relative viability ([4]; first compound 2.53 µM): 0.804 | relative viability ([4]; first compound 8 µM): 1.01 | relative viability ([5]; first compound 0.253 µM): 0.464 | relative viability ([5]; first compound 0.8 µM): 0.415 | relative viability ([5]; first compound 2.53 µM): 0.437 | relative viability ([5]; first compound 8 µM): 0.399 | relative viability ([6]; first compound 0.253 µM): 0.398 | relative viability ([6]; first compound 0.8 µM): 0.695 | relative viability ([6]; first compound 2.53 µM): 0.416 | relative viability ([6]; first compound 8 µM): 0.405 | relative viability ([7]; first compound 0.253 µM): 0.883 | relative viability ([7]; first compound 2.53 µM): 1.12 | relative viability ([7]; first compound 8 µM): 0.922 | relative viability ([8]; first compound 0.253 µM): 0.57 | relative viability ([8]; first compound 0.8 µM): 0.611 | relative viability ([8]; first compound 2.53 µM): 0.67 | relative viability ([8]; first compound 8 µM): 0.553 | relative viability ([9]; first compound 0.253 µM): 0.934 | relative viability ([9]; first compound 0.8 µM): 0.948 | relative viability ([9]; first compound 2.53 µM): 0.906 | relative viability ([9]; first compound 8 µM): 0.898 | relative viability ([10]; first compound 0.253 µM): 0.654 | relative viability ([10]; first compound 0.8 µM): 0.764 | relative viability ([10]; first compound 2.53 µM): 0.861 | relative viability ([10]; first compound 8 µM): 1.03 | relative viability ([11]; first compound 0.253 µM): 0.776 | relative viability ([11]; first compound 0.8 µM): 0.754 | relative viability ([11]; first compound 2.53 µM): 0.87 | relative viability ([11]; first compound 8 µM): 0.786 | relative viability ([12]; first compound 0.253 µM): 0.62 | relative viability ([12]; first compound 0.8 µM): 0.567 | relative viability ([12]; first compound 2.53 µM): 0.579 | relative viability ([12]; first compound 8 µM): 0.509 | relative viability ([13]; first compound 0.253 µM): 0.305 | relative viability ([13]; first compound 0.8 µM): 0.582 | relative viability ([13]; first compound 2.53 µM): 0.651 | relative viability ([13]; first compound 8 µM): 0.576 | relative viability ([14]; first compound 0.253 µM): 0.261 | relative viability ([14]; first compound 0.8 µM): 0.283 | relative viability ([14]; first compound 2.53 µM): 0.243 | relative viability ([14]; first compound 8 µM): 0.246 | relative viability ([15]; first compound 0.253 µM): 0.861 | relative viability ([15]; first compound 0.8 µM): 0.858 | relative viability ([15]; first compound 2.53 µM): 0.87 | relative viability ([15]; first compound 8 µM): 0.814 | relative viability ([16]; first compound 0.253 µM): 0.676 | relative viability ([16]; first compound 0.8 µM): 0.672 | relative viability ([16]; first compound 2.53 µM): 0.58 | relative viability ([16]; first compound 8 µM): 0.608 | relative viability ([17]; first compound 0.253 µM): 0.328 | relative viability ([17]; first compound 0.8 µM): 0.309 | relative viability ([17]; first compound 2.53 µM): 0.373 | relative viability ([17]; first compound 8 µM): 0.394 | relative viability ([18]; first compound 0.253 µM): 0.612 | relative viability ([18]; first compound 0.8 µM): 0.629 | relative viability ([18]; first compound 2.53 µM): 0.638 | relative viability ([18]; first compound 8 µM): 0.677 | relative viability ([19]; first compound 0.253 µM): 0.547 | relative viability ([19]; first compound 0.8 µM): 0.591 | relative viability ([19]; first compound 2.53 µM): 0.674 | relative viability ([19]; first compound 8 µM): 0.799 | relative viability ([20]; first compound 0.8 µM): 0.607 | relative viability ([20]; first compound 2.53 µM): 0.652 | relative viability ([20]; first compound 8 µM): 0.665 | relative viability ([21]; first compound 0.253 µM): 1.04 | relative viability ([21]; first compound 0.8 µM): 1.17 | relative viability ([21]; first compound 2.53 µM): 1.24 | relative viability ([21]; first compound 8 µM): 1.16 | relative viability ([22]; first compound 0.253 µM): 0.737 | relative viability ([22]; first compound 0.8 µM): 0.712 | relative viability ([22]; first compound 2.53 µM): 0.748 | relative viability ([22]; first compound 8 µM): 0.774 | relative viability ([23]; first compound 0.253 µM): 0.633 | relative viability ([23]; first compound 0.8 µM): 0.57 | relative viability ([23]; first compound 2.53 µM): 0.668 | relative viability ([23]; first compound 8 µM): 0.612 | relative viability ([24]; first compound 0.253 µM): 0.265 | relative viability ([24]; first compound 0.8 µM): 0.263 | relative viability ([24]; first compound 2.53 µM): 0.284 | relative viability ([24]; first compound 8 µM): 0.272 | relative viability ([25]; first compound 0.253 µM): 0.847 | relative viability ([25]; first compound 0.8 µM): 0.865 | relative viability ([25]; first compound 2.53 µM): 0.864 | relative viability ([25]; first compound 8 µM): 0.92
